In article PMC10222270, “Natural Product-Based Screening for Lead Compounds Targeting SARS CoV-2 M^pro” (Pharmaceuticals, 2023):
Values joined by “and” are separate entries in the source; they are usually repeats but may differ in a detail not shown here. Identical values can stand only once.

Molecular target: T1, SARS CoV-2 M^pro (Severe acute respiratory syndrome coronavirus 2, UniProt P0DTD1)
T1 construct: The main protease (M^pro) is a part of the polyprotein chain, also named 3C-like protease; SUMO (cleaved yes); His; made in house; host or cells: Escherichia coli BL21(DE3)
Assay: biochemical
Format: biochemical
Conditions: for inhibition at 80 µM: read-out: Inhibition%(80μM)

Row | Molecule | Inhibition%(80μM) | inhibition at 80 µM [%] | result of retest over a concentration range (gradient concentrations)
1 | CC1=CC(=O)c2c(O)cccc2C1=O [Plumbagin] | 74.76% and 75.47% | 70.2 | –
2 | O=P(O)(O)O[C@H]1[C@H](OP(=O)(O)O)[C@@H](OP(=O)(O)O)[C@H](OP(=O)(O)O)[C@@H](OP(=O)(O)O)[C@H]1OP(=O)(O)O [Phytic Acid] | 97.45% and 98.02% | 97.6 | –
3 | Maleimide | 103.98% and 104.37% and 103.27% | – | –
4 | COc1ccc2c(c[n+](C)c3c4cc5c(cc4ccc23)OCO5)c1OC [Chelerythrine] | 98.97% and 99.51% | 99.4 | –
5 | O=c1cc(-c2ccc(O)cc2)oc2cc(O)c(O)c(O)c12 [Scutellarein] | 85.01% and 83.89% | 84.1 | –
6 | CC1=C(O)C(=O)C=C2C1=CC=C1[C@@]2(C)CC[C@@]2(C)[C@@H]3C[C@](C)(C(=O)O)CC[C@]3(C)CC[C@]12C [Celastrol] | 85.83% and 91.32% | 89.6 | –
7 | CCCCCCCCCCCCCC(=O)O [Myristic Acid] | 82.11% and 84.30% | 85 | –
8 | COc1ccc2c(c[n+](C)c3c4cc5c(cc4ccc23)OCO5)c1OC [Chelerythrine chloride] | 98.66% and 98.31% and 98.46% | – | –
9 | CCCCC/C=C\C/C=C\CCCCCCCCCC(=O)O [Eicosadienoic Acid] | 103.14% and 107.18% | 105 | –
10 | Oc1ccc2c(c1)OC[C@]1(O)Cc3cc(O)c(O)cc3[C@H]21 [Brazilin] | 101.06% and 101.28% | 101 | –
11 | CCCCCC/C=C\CCCCCCCCCc1cccc(O)c1C(=O)O [Ginkgolic Acid C17:1] | 100.63% and 101.61% | 102 | –
12 | CCCCC/C=C\C/C=C\C/C=C\C/C=C\CCCC(=O)O [Arachidonic Acid] | 76.72% and 73.70% | 82.2 | –
13 | O=C(/C=C/c1ccc(O)c(O)c1)OC[C@H]1O[C@@H](OCCc2ccc(O)c(O)c2)[C@H](O)[C@@H](O[C@@H]2O[C@H](CO)[C@@H](O)[C@H](O)[C@H]2O)[C@@H]1O [Plantainoside D] | 99.79% and 99.90% | 101 | –
14 | CCCCCCCC/C=C/CCCCCCCC(=O)O [Elaidic Acid] | 79.40% and 87.31% | 74.9 | –
15 | CC(C)=CCC[C@]1(C)C=Cc2c(O)c3c(c(CC=C(C)C)c2O1)O[C@]12C(=C[C@@H]4C[C@H]1C(C)(C)O[C@@]2(C/C=C(/C)C(=O)O)C4=O)C3=O [Gambogic Acid] | 78.61% and 79.43% | 78.5 | –
16 | O=c1oc2c(O)cc(O)cc2c2oc3cc(O)c(O)cc3c12 [Isodemethylwedelolacton] | 99.38% and 99.79% | 99.7 | –
17 | C[n+]1cc2c3c(ccc2c2ccc4cc5c(cc4c21)OCO5)OCO3 [Sanguinarine chloride] | 108.15% | 108 | –
18 | CC(C)=CCCC1=CC(=O)c2c(O)ccc(O)c2C1=O [Deoxyshikonin] | 88.46% and 84.98% | 82.3 | –
19 | Harmol | 74.50% and 81.33% and 79.31% | – | –
20 | CCCCCCCCCCCCCCC(=O)O [Pentadecanoic Acid] | 92.58% and 91.46% | 92.3 | –

Row | Molecule | Inhibition%(80μM) | inhibition at 80 µM [%] | result of retest over a concentration range (gradient concentrations)
21 | O=c1c(O)c(-c2cc(O)c(O)c(O)c2)oc2cc(O)cc(O)c12 [Myricetin] | 90.18% and 90.28% | 90.6 | –
22 | CC(=O)/C=C/c1ccc(O)c(O)c1 [Osmundacetone] | 98.31% and 98.46% | 98.7 | –
23 | O=C(/C=C/c1ccc(O)c(O)c1)OC[C@H]1O[C@@H](OCCc2ccc(O)c(O)c2)[C@H](O)[C@@H](O)[C@@H]1O [Desrhamnosyl Isoacteoside] | 93.35% and 94.40% and 92.55% | – | –
24 | CCCCCC/C=C\CCCCCCCC(=O)O [Palmitoleic Acid] | 103.78% and 102.80% | 103 | –
25 | O=C(O)Cc1ccc(O)c(O)c1 [3,4-Dihydroxyphenylacetic Acid] | 71.59% and 70.57% | 72.4 | –
26 | CCCCCCCC/C=C\CCCCCCCCCCCCCC(=O)O [Nervonic Acid] | 89.75% and 93.14% | 93.6 | –
27 | CCCCCCCC/C=C\CCCCCCCC(=O)O [Oleic Acid] | 104.37% and 103.27% | 104 | –
28 | C[n+]1cc2c3c(ccc2c2ccc4cc5c(cc4c21)OCO5)OCO3 [sanguinarine, Sanguinarine] | 107.86% and 107.40% and 108.34% | – | no inhibitory effect on M^pro when retested
29 | CCCCCCCC/C=C\CCCCCCCCCCCC(=O)O [Erucic Acid] | 99.68% and 100.48% | 101 | –
30 | O=C(O[C@@H]1Cc2c(O)cc(O)cc2O[C@H]1c1cc(O)c(O)c(O)c1)c1cc(O)c(O)c(O)c1 [(−)–gallocatechin gallate, (-)-Gallocatechin Gallate] | 102.08% and 101.74% | 101 | –
31 | O=C1O[C@H]2[C@@H]3OC(=O)c4cc(O)c(O)c(O)c4-c4c(O)c(O)c5oc(=O)c6c(c(O)c(O)c7oc(=O)c4c5c76)-c4c(cc(O)c(O)c4O)C(=O)OC[C@H]3OC(O)[C@@H]2OC(=O)c2cc(O)c(O)c(O)c2-c2c1cc(O)c(O)c2O (mixture of isomers) [Punicalagin] | 73.51% and 73.40% | 75 | –
32 | C[C@@H]1OC(O[C@@H]2[C@@H](O)[C@H](OCCc3ccc(O)c(O)c3)O[C@H](CO[C@@H]3OC[C@@H](O)[C@H](O)[C@H]3O)[C@H]2OC(=O)/C=C/c2ccc(O)c(O)c2)[C@H](O)[C@H](O)[C@H]1O (stereo partly shown) [Arenarioside] | 99.86% and 99.31% | 99.1 | –
33 | O=C(O)[C@H]1O[C@@H](Oc2cc3oc(-c4ccc(O)cc4)cc(=O)c3c(O)c2O)[C@H](O)[C@@H](O)[C@@H]1O [Breviscapin] | 78.06% and 77.78% | 66 | –
34 | O=C1O[C@H]2[C@@H]3OC(=O)c4cc(O)c(O)c(O)c4-c4c(cc(O)c(O)c4O)C(=O)OC[C@H]2O[C@@H](OC(=O)c2cc(O)c(O)c(O)c2)[C@@H]3OC(=O)c2cc(O)c(O)c3c2[C@@H]2C1=CC(=O)[C@](O)(O3)C2(O)O [Geraniin] | 70.07% and 71.11% | 71.6 | –
35 | CC(C)c1cc2c(c(O)c1O)[C@@]13CCCC(C)(C)[C@@H]1C[C@@H]2OC3=O [Carnosol] | 73.35% and 80.59% | 74.5 | –
36 | C/C=C1/[C@H](O[C@@H]2O[C@H](CO)[C@@H](O)[C@H](O)[C@H]2O)OC=C(C(=O)OC)[C@H]1CC(=O)OCCc1ccc(O)c(O)c1 [Oleuropein] | 97.72% | 96.6 | –
37 | C[C@@H]1O[C@@H](OC[C@H]2O[C@@H](OCCc3ccc(O)c(O)c3)[C@H](O)[C@@H](O)[C@@H]2OC(=O)/C=C/c2ccc(O)c(O)c2)[C@H](O)[C@H](O)[C@H]1O [Forsythoside A] | 73.60% and 71.69% | 77 | –
38 | O=C(O)c1ccc2c(c1)C(=O)c1ccccc1C2=O [Anthraquinone-2-Carboxylic Acid] | 84.57% | 85.4 | –
39 | CC(C)=CCC(OC(=O)C=C(C)C)C1=CC(=O)c2c(O)ccc(O)c2C1=O (stereo not drawn) [β,β-dimethylacrylshikonin] | 75.31% and 77.34% and 77.10% | – | –
